Experimental data taken from patent US20210401798A1, “LIPOXIN A4 ANALOGS AND USES THEREOF” (The Brigham and Women's Hospital, Inc., priority 2018, published 2021).

Legend:
[1] = test system: peritoneal lavage cells; experiment: Cell count in mouse peritonitis model (zymosan); assay type: in vivo
[2] = biological target: T1, human GPR32 (RvD1 Receptor) (Homo sapiens, UniProt O75388); experiment: Beta-Arrestin PathHunter GPR32 activation assay; assay type: cell-based; conditions: CHO-GPR32 cells, 1 h at 37° C., chemiluminescence
T1 construct: host or cells: CHO cells (CHO-GPR32)
T1 sequence (O75388 whole entry): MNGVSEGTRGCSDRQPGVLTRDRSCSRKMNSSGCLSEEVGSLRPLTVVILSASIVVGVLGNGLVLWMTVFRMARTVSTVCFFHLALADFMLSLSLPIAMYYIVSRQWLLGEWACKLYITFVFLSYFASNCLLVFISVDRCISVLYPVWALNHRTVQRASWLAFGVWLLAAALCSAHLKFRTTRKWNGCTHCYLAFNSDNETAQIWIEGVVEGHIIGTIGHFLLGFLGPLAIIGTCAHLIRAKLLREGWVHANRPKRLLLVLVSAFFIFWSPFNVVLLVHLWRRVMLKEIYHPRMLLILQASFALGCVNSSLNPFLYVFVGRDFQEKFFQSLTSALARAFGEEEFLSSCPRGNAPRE
Description: (§1) Ligand receptor interactions were monitored using the Beta-Arrestin PathHunter eXpress System™ (DiscoverX, Fremont, Calif.) and carried out with CHO cells stably overexpressing recombinant human GPR32 receptors. CHO-GPR32 cells were plated onto 96-well plates 24 h prior to experiments. Test compounds at indicated concentrations were incubated with cells for 1 h at 37° C. and receptor activation was determined by measuring chemiluminescence using the PathHunter detection kit. The results of this experiment are expressed as % increase of chemiluminescence above vehicle control (FIG. 2). Results are mean from 3 or 4 independent experiments and 3 replicates in each experiment.

[3] = test system: PMN; experiment: PMN clearance in vivo, E. coli initiated peritonitis; design: species or system mouse
Description: FVB mice (male, 6 wks old) were inoculated with E. coli (10^5 CFU). […] Total leukocytes were enumerated using light microscopy and PMN numbers were determined by flow cytometry. […] Resolution indices were calculated using PMN numbers.

[4] = biological target: T2, human recombinant CB2 receptor (Homo sapiens, UniProt P34972); experiment: CB2 radioligand binding assay
T2 construct: expressed in transfected cells; host or cells: CHO cells (membrane homogenates)
T2 sequence (P34972 whole entry): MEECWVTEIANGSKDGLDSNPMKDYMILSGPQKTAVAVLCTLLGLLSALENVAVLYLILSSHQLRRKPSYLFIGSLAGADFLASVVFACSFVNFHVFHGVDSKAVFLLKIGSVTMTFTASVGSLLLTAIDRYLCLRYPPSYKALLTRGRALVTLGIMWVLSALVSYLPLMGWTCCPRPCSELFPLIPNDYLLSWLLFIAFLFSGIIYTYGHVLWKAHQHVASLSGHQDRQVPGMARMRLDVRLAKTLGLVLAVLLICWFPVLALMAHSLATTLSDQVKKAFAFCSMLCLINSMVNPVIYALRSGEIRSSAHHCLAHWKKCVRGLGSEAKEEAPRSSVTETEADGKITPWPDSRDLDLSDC
Description: (§2) The binding affinity (% inhibition, K) of each of Compounds (1) and (2) for the CB1 and CB2 receptors was determined by a competitive radioligand binding assay. […] By comparison, no binding of the free acid to either the CB1 or CB2 receptors was observed (FIG. 5). The radioligand binding assays were performed as described below.
CB2 Radioligand Binding Assay: Cell membrane homogenates (12 μg protein) prepared from CHO cells expressing human recombinant CB2 receptor were incubated for 120 min at 37° C. with 0.8 nM [^3H]WIN 55212-2 (CB1/CB2 radioligand) in the absence or presence of the test compound in a buffer containing 50 mM Hepes/Tris (pH 7.4), 5 mM MgCl2, 2.5 mM EGTA and 0.1% BSA. Nonspecific binding was determined in the presence of 5 μM WIN 55212-2. Each compound was tested in 8 concentrations. For each concentration, % Inhibition was determined as a function of radioligand specific binding to the CB2 receptor. The K was determined from the concentration-response curve of each tested compound.
(§3) Further details for determining the binding affinity of compounds for a cannabinoid receptor by competitive radioligand binding can be found in the literature, for example, in Rinaldi-Carmona M, et al. Characterization of two cloned human CB1 cannabinoid receptors isoform. […]

[5] = test system: Human Mϕ; experiment: Human macrophage phagocytosis of live E. coli; assay type: cell-based; conditions: BacLight Green-labeled E. coli, fluorescence
Description: Human Mϕ were plated onto chamber slides (0.1×10^6 cells/well), incubated with RvD1, compound (10 nM), or vehicle alone for 15 min at 37° C., followed by addition of BacLight Green-labeled E. coli to initiate phagocytosis. Fluorescent images were then recorded every 10 min for 120 min (37° C.) using Keyence BZ-9000 (BIOREVO) inverted fluorescence phase-contrast microscope (40× objective) equipped with a monochrome/color switching camera using BZ-II Viewer software (Keyence, Itasca, Ill., USA). Green fluorescence intensity was quantified using BZ-II Analyzer. Results are recordings of mean fluorescence intensity (MFI) from one representative donor (FIG. 6). Human Mϕ were plated onto 96-well plates (5×10^4 cells/well), incubated with RvD1, compound (1 pM-100 nM) or vehicle alone for 15 min at 37° C., followed by addition of BacLight Green-labeled E. coli (E. coli:Mϕ=50:1) to initiate phagocytosis. One hour later, fluorescence associated with Mϕ was determined using a microplate reader. Results are expressed as percent increase above vehicle (E. coli alone); mean from 4 separate experiments (FIG. 7).

[6] = biological target: T3, human ALX/FPR2 (LXA4 Receptor) (Homo sapiens, UniProt P25090); experiment: Beta-Arrestin PathHunter ALX/FPR2 activation assay; assay type: cell-based; conditions: HEK-ALX cells, 1 h at 37° C., chemiluminescence
T3 construct: host or cells: HEK cells (HEK-ALX)
T3 sequence (P25090 1-351): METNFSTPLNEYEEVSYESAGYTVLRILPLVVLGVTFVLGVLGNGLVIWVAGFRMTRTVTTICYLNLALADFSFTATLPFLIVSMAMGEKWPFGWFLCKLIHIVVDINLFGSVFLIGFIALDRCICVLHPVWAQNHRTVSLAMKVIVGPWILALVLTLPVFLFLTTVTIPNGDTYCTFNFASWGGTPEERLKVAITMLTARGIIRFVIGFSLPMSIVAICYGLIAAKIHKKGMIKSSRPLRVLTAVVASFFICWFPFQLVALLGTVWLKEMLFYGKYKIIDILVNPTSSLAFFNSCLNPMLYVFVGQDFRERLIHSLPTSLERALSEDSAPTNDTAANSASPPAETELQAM
Description: as §1, with “HEK” for “CHO”, “ALX” for “GPR32”, “HEK-ALX” for “CHO-GPR32”, “Results” for “The results of this experiment”, “3).” for “2).”

[7] = Rat pharmacokinetic study; assay type: in vivo; conditions: SD rats, IV 0.3 mg/kg
Description: Sprague Dawley (SD) rats (n=3/group) were administered either compound (1) or compound (2) orally at 10 mg/kg (5% ethanol, 5% VE-TPGS, 90% PEG400) or intravenously at 0.3 mg/kg (5% NMP, 95% PEG400). The resulting individual and mean plasma concentration-time was measured for the free acid, compound (2), with the data provided in Tables 4-7.

[8] = biological target: T4, human recombinant CB1 receptor (Homo sapiens, UniProt P21554); experiment: CB1 radioligand binding assay
T4 construct: expressed in transfected cells; host or cells: Chem cells (membrane homogenates)
T4 sequence (P21554 whole entry): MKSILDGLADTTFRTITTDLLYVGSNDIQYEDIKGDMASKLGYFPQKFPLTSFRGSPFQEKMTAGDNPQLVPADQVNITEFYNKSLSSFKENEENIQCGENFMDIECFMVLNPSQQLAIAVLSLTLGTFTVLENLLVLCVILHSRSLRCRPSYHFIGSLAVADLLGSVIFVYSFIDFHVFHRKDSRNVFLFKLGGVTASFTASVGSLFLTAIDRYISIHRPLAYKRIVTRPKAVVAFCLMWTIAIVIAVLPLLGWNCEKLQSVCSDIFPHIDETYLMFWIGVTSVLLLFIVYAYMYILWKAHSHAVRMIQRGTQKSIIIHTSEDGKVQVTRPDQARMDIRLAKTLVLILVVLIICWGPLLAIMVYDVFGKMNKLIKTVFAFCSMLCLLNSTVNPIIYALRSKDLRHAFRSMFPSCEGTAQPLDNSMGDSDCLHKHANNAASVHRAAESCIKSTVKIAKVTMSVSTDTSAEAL
Description: as §2
CB1 Radioligand Binding Assay: Cell membrane homogenates (5 μg protein) prepared from Chem cells expressing human recombinant CB1 receptor were incubated for 30 min at 22° C. with 2 nM [^3H]CP 55940 (CB1/CB2 radioligand) in the absence or presence of the test compound in a buffer containing 50 mM Tris-HCl (pH 7.4), 5 mM MgCl2, 2.5 mM EDTA and 0.3% BSA. Nonspecific binding is determined in the presence of 10 μM WIN 55212-2. Each compound was tested in 8 concentrations. For each concentration, % Inhibition was determined as a function of radioligand specific binding to the CB1 receptor. The K was determined from the concentration-response curve of each tested compound.
as §3

[9] = FVB mice, 100 ng i.p. 12 h after inoculation
[10] = 24 h post-zymosan, 0.1 μg/mouse

CC/C=C\C[C@H](O)/C=C/C=C\C=C\C=C\[C@@H](O)[C@@H](O)C/C=C\CCC(=O)O [RvD1, resolvin D1, reference compound]
Estimated PMNs ([1]; 3 h post-zymosan, 0.1 μg/mouse): 5723.25 10^3/ml
Granulocytes Counted (100 cells) ([1]; 3 h post-zymosan, 0.1 μg/mouse): 89.8
Mononuclear Counted (100 cells) ([1]; 3 h post-zymosan, 0.1 μg/mouse): 10.8
Nucleated Cells ([1]; 3 h post-zymosan, 0.1 μg/mouse): 6375.00 10^3/ml
Estimated PMNs ([1]; 3 h post-zymosan, 1 μg/mouse): 6685.13 10^3/ml
Granulocytes Counted (100 cells) ([1]; 3 h post-zymosan, 1 μg/mouse): 96.3
Mononuclear Counted (100 cells) ([1]; 3 h post-zymosan, 1 μg/mouse): 3.8
Nucleated Cells ([1]; 3 h post-zymosan, 1 μg/mouse): 6232.50 10^3/ml
Estimated PMNs ([1]; 24 h post-zymosan, 1 μg/mouse): 11496.23 10^3/ml
Granulocytes Counted (100 cells) ([1]; 24 h post-zymosan, 1 μg/mouse): 86.6
Mononuclear Counted (100 cells) ([1]; 24 h post-zymosan, 1 μg/mouse): 13.4
Nucleated Cells ([1]; 24 h post-zymosan, 1 μg/mouse): 13267.50 10^3/ml

O=C1COC[C@@H]([C@H](O)/C=C/C=C/C#C/C=C/[C@H](O)COc2ccc(F)cc2)O1 [Compound (1), (S)-6-((1R,2E,4E,8E,10S)-11-(4-fluorophenoxy)-1,10-dihydroxyundeca-2,4,8-trien-6-yn-1-yl)-1,4-dioxan-2-one]
activation of human GPR32 (RvD1 Receptor) [2]: activates
Resolution Interval [3, 9]: 11 h
T50 [3, 9]: 23 h
Tmax [3, 9]: 12 h
reduction of Tmax ([3]; vs E. coli alone): 50%
Ki ([4]; [3H]WIN 55212-2 competition, read-out: K (binding affinity) CB2 receptor): 630 nM
human macrophage phagocytosis of live E. coli [5]: enhances
activation of human ALX/FPR2 (LXA4 Receptor) [6]: activates
plasma Concentration of compound (2), Individual ([7]; 8 hr, 0.3 mg/kg): BQL
plasma Concentration of compound (2), Individual ([7]; 12 hr, 0.3 mg/kg): BQL
plasma Concentration of compound (2), Individual ([7]; 24 hr): BQL
plasma Concentration of compound (2), Mean ([7]; 24 hr): BQL
Ki ([8]; [3H]CP 55940 competition, read-out: K (binding affinity) CB1 receptor): > 5000 nM
Estimated PMNs ([1]; 3 h post-zymosan, 0.1 μg/mouse): 5977.50 10^3/ml
Granulocytes Counted (100 cells) ([1]; 3 h post-zymosan, 0.1 μg/mouse): 96.4
Mononuclear Counted (100 cells) ([1]; 3 h post-zymosan, 0.1 μg/mouse): 3.6
Nucleated Cells ([1]; 3 h post-zymosan, 0.1 μg/mouse): 6165.00 10^3/ml
Estimated PMNs ([1]; 3 h post-zymosan, 10 μg/mouse): *4012.13 10^3/ml
Granulocytes Counted (100 cells) ([1]; 3 h post-zymosan, 10 μg/mouse): 95.0
Mononuclear Counted (100 cells) ([1]; 3 h post-zymosan, 10 μg/mouse): 5.0
Nucleated Cells ([1]; 3 h post-zymosan, 10 μg/mouse): *4237.50 10^3/ml
Estimated PMNs [1, 10]: 14672.70 10^3/ml
Granulocytes Counted (100 cells) [1, 10]: 88.8
Mononuclear Counted (100 cells) [1, 10]: 11.2
Nucleated Cells [1, 10]: 16380.00 10^3/ml

O=C(O)COC[C@H](O)[C@H](O)/C=C/C=C/C#C/C=C/[C@H](O)COc1ccc(F)cc1 [Compound (2), 2-(((2S,3R,4E,6E,10E,12S)-13-(4-fluorophenoxy)-2,3,12-trihydroxytrideca-4,6,10-trien-8-yn-1-yl)oxy)acetic acid, reference compound]
binding to CB2 receptor ([4]; radioligand binding): no binding
plasma Concentration of compound (2), Individual ([7]; 12 hr, 0.3 mg/kg): BQL
plasma Concentration of compound (2), Individual ([7]; 24 hr): BQL
plasma Concentration of compound (2), Mean ([7]; 24 hr): BQL
binding to CB1 receptor ([8]; radioligand binding): no binding
